“Also recorded” adds a separate entry of the source. Like-named read-outs stand apart in the source and are kept apart here.
What was measured:
[1] = cited from earlier work
interleukin-1β (IL-1β) [2] = biological target: T1, interleukin-1β (IL-1β) (Homo sapiens, UniProt P01584); assay type: binding; conditions: IL-1β in LDAO/10MAG reverse micelles; for extent of binding across the protein surface (in words): Figure 1
[3] = alkane/water partitioning by simple NMR method; assay type: physicochemical; conditions: alkane (pentane)/water partitioning
interleukin-1β (IL-1β) [4] = biological target: T1, interleukin-1β (IL-1β); assay: ethanol titration under standard bulk conditions compared with RM titration

T1 sequence (P01584 117-269): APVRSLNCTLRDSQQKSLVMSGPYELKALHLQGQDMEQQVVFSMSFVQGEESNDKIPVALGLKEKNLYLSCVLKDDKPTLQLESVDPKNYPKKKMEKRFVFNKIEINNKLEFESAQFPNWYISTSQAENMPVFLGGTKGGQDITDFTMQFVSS

Row | SMILES | binding affinity (in words) (interleukin-1β (IL-1β) [2]) | extent of binding across the protein surface (in words) (interleukin-1β (IL-1β) [2]) | also measured
1 | CCCCCCCCCCCC[N+](C)(C)[O-] [LDAO] | – | – | pKa [1]: ~ 5
2 | CNC(C)=O [N-methylacetamide] | relatively weak binding affinities; also recorded: more diffuse and weak | relatively sparse binding across the protein surface | –
3 | CC#N [acetonitrile] | more diffuse and weak | relatively sparse binding across the protein surface | binding affinity (in words) (interleukin-1β (IL-1β) [2]; listed as Acetonitrile): relatively weak binding affinities; fraction of molecules retained in the RM [3]: over one-third
4 | CCO [ethanol] | more specific and with a relatively higher affinity | binding is limited to fewer sites | binding affinity (in words) (interleukin-1β (IL-1β) [2]; listed as Ethanol): relatively high binding affinity within a narrow Kd range; binding in RMs compared with bulk (in words) (interleukin-1β (IL-1β) [4]): binds slightly more weakly to the protein in RMs than in bulk
5 | c1c[nH]cn1 [imidazole] | more specific and with a relatively higher affinity | bind at a larger number of sites | –
6 | CN [methylammonium] | – | bind at a larger number of sites | –
7 | c1cncnc1 [pyrimidine] | – | bind at a larger number of sites | fraction of molecules retained in the RM [3]: over one-third
